The values that follow come from paper PMC10368370, “Development of o-aminobenzamide salt derivatives for improving water solubility and anti-undifferentiated gastric cancer” (Frontiers in Pharmacology, 2023).

One series relates to HGC-27 cells. The series can be described thus: MTT cytotoxicity / anti-proliferation assay. In kind it is cell-based, human. The settings on record: HGC-27, MTT, 72 h; read-out: IC50, cancer cell viability. On the procedure: Undifferentiated human gastric cancer cell line (HGC-27) was purchased from the China Center for Type Collection (CCTCC, China) and used with 10% Foetal Bovine Serum (FBS, Gemini, Bio-Product, CA, United States), 1% penicillin streptomycin (PS) and 89% 1,640 medium ([…]) for culture. All cells were incubated at 37°C in a constant temperature incubator containing 95% air and 5% CO2.
To evaluate the cytotoxicity of F8 and related organic salts on HGC-27 cells, MTT analysis was performed. HGC-27 cells were digested with trypsin, then cells were spread into 96-well plates at a density of 3,000 cells/well and incubated for 12–16 h. After 12 h, the medium in 96-well plates was replaced with compounds containing 1, 0.5, 0.25, 0.125, 0.062, 0.0312 μM for another 72 h. Three days later, 20 μL MTT solution was added and incubated at 37°C for 4 h. Then 150 μL DMSO solution was added to each well after the fluid was removed, and the absorbance was detected by microplate reader. The compound dissolved in DMSO was added to the cell medium so that the final concentration of DMSO was less than 0.4%.
Infinite proliferation is one of the most prominent features of cancer cells, therefore, we evaluated the anti-proliferation activity of compounds F8 and related organic salts against human gastric carcinoma HGC-27 via MTT assay.

A further series deals with SK-Hep-1. The series can be described thus: MTT cytotoxicity / anti-proliferation assay. In kind it is cell-based. The conditions noted are these: SK-Hep-1, MTT, 72 h; read-out: IC50, cancer cell viability.
Series [1] is described as follows: In vivo acute toxicity study. Details: species or system Kunming mice. The settings on record: for LD50 at 14 days: both sexes, Kunming, mouse, in vivo. On the procedure: We investigated the toxicity of F8·2HCl when administered in three different ways, and F8·2HCl was all dissolved with normal saline, and the concentration of intravenous and intraperitoneal injection was 8 mg/mL, and the concentration of intragastric administration was 10 mg/mL. Ninety Kunming mice (45 males and 45 females) weighing 18–22 g were divided into 15 groups (n = 6). The doses of F8·2HCl injected by tail vein were 40 mg/kg, 60 mg/kg, 90 mg/kg, 110 mg/kg, 135 mg/kg, 200 mg/kg, 300 mg/kg, 400 mg/kg and 500 mg/kg, respectively. Intraperitoneal injection of different doses of F8·2HCl were 200 mg/kg, 250 mg/kg, 300 mg/kg, 360 mg/kg and 500 mg/kg, respectively. We also added a dose of 600 mg/kg administered by gavage. All drugs administered were dissolved in normal saline. Toxicity was monitored for 14 days. During the monitoring period, the status of mice was observed and their body weight was recorded.
To evaluate the safety of F8·2HCl in vivo, acute toxicity studies were performed. First, six Kunming mice (half male and half female) were gavage with F8·2HCl at a single dose of 600 mg/kg.

In general, IC50 refers to the concentration that gives 50% inhibition. As a reminder, the LD50 is the dose expected to kill half of the subjects tested. A high value points to a less toxic substance.

Regarding `O=C(NCc1ccc(NC(=O)c2cc(F)ccc2N2CCCC2)cc1)OCc1cccnc1` [F8·2HCl], the half-maximal inhibitory concentration (IC50) with HGC-27 cells was 0.25 ± 0.01 µM; in the series with SK-Hep-1, 9.37 ± 0.91 µM. The “HE staining of heart, liver, spleen, lung, kidney” value in series [1] (200 mg/kg intraperitoneal injection) and in series [1] (600 mg/kg oral administration) was “intact without any lesions” each time. For the same compound, the LD50 at 14 days in series [1] (ip, intraperitoneal injection, KM mice, 14 days) worked out at 303 mg/kg; in series [1] (intravenous injection, KM mice, 14 days), 153 mg/kg. For the same compound, in series [1] (single dose 600 mg/kg by gavage, KM mice, 14 days), the “survival and abnormal reactions” value is recorded as “All the mice survived 14 days without any abnormal reactions”.
